Results as given in patent US11331364B2, “Use for JNK inhibitor molecules for treatment of various diseases” (Xigen Inflammation Ltd., priority 2014, dated 2022).
Square brackets hold non-standard residues; d marks the D form. Peptide text beside a SMILES is read from it.

What was measured:
[1] = dissolved in 0.9% NaCl, up to 0.4 mg/ml
Text: To receive three different doses (cf. above, groups table) it has been serially diluted (1:10 fold).

[2] = tested on: primary rat lymph-nodes purified T cells; assay: CD3/CD28-induced IL-2 release in primary rat lymph-nodes purified T cells; assay type: cell-based; settings: added 1 h before CD3/CD28 (2 μg/mL); supernatant 24 h
Description: Control rat were sacrificed and lymph-nodes were harvested. T cells further were purified (using magnetic negative selection) and plated into 96-well plates at 200.000 cells/well. Cells were treated with anti-rat CD3 and anti-rat CD28 antibodies (2 μg/mL). JNK inhibitor with SEQ ID NO: 172 was added to the cultures 1 h before CD3/CD28 treatment and IL-2 release was assessed in supernatant 24 h after treatment.
Control animal were sacrificed, lymph nodes (LN) were harvested and kept in complete RPMI medium. LN were smashed with complete RPMI on 70 μm filter using a 5 ml piston. A few drops of media were added to keep strainer wet. Cells were centrifuged for 7 min at 450 g and 4° C. Pellet was resuspended in 5 ml fresh medium. Cells were passed again through cell strainer. An aliquot of cells was counted, while cells were centrifuged again 10 min at 1400 rpm and 4° C. Cells were resuspended in MACS buffer (80 μl of MACS buffer per 10^7 cells). 10 μl of anti-rat MHC microbeads were added per 10 million cells, cells were incubated for 15 min at 4°-8° C. Cells were washed with 15 ml MACS buffer and centrifuge for 7 min at 700 g and 4° C. […] Resuspended cells were counted and plated at density of 200000 cells/well in 100 μl of complete medium. […] Cytokines were then measured using standard Elisa kits. Results are expressed as pg/ml of supernatant of the measured cytokine. […]

## CC(C)C[C@H](NC(=O)[C@H](CC(N)=O)NC(=O)[C@H](CC(C)C)NC(=O)[C@@H](NC(=O)[C@@H](C)NC(=O)[C@@H]1CCCN1C(=O)[C@H](CCCNC(=N)N)NC(=O)[C@@H](CCCCN)NC(=O)[C@@H]1CCCN1C(=O)[C@H](CCCNC(=N)N)NC(=O)[C@@H](CCCNC(=N)N)NC(=O)[C@H](CCCNC(=N)N)NC(=O)[C@H](CCCNC(=N)N)NC(=O)[C@H](CCC(N)=O)NC(=O)[C@@H](CCCNC(=N)N)NC(=O)[C@H](CCCNC(=N)N)NC(=O)[C@H](CCCCN)NC(=O)[C@H](CCCCN)NC(=O)[C@H](N)CCCNC(=N)N)[C@@H](C)O)C(=O)N[C@H](Cc1ccccc1)C(N)=O [SEQ ID NO: 172, rKKRrQRRrRPkRPaTLNLf] (H-[dR]KKR[dR]QRR[dR]RP[dK]RP[dA]TLNL[dF]-NH2; N-terminus assumed)
[1]
  solubility: readily soluble and did not fall out of solution
[2]
  CD3/CD28-induced IL-2 release: Dose-dependent inhibition
